Structures are written as SMILES.

Common to all, as to format: in vivo, mouse
Test [1] concerns Npc1^−/− mice. Put plainly: Lipid storage (GSLs, sphingoid bases, cholesterol) in liver of Npc1−/− mice. Also noted: reduction of liver GSL levels (total) / reduction of GM2Gc in liver / reduction of sphingosine in liver / reduction of sphinganine in liver / reduction of GM3Gc in liver: concentration or dose not given beside the values. Particulars: 59 days of age. The method, then:
(§1) ADLL and enantiomers (ADLL: Molekula #73891210, ALL: Sigma Aldrich #441511, ADL: Sigma #A0876) were administered as dry admix in powdered mouse diet (PicoLab Rodent Diet 20/5053, LabDiet) at a dose of 0.1 g/kg/day for in vivo studies. Treatment groups for in vivo study consisted of at least 5 mice per group. In vitro studies were conducted with each compound dissolved in PBS to generate a 50 mM stock solution and diluted to a 1 mM working concentration in media (DMEM High Glucose-Gibco #10566016).
Biochemical and immunohistochemical analyses. Mice were saline perfused under terminal anaesthesia. Tissues for biochemical analysis were snap-frozen on ice-cold isopentane. For immunofluorescent staining, tissues were perfused with 4% PFA followed by PBS and kept in 4% PFA for 24h and stored in PBS containing 20% sucrose longer term. Brains were cut parasagitally (20 micron sections) and stored in 30% ethylene glycol, 30% glycerol 0.1 M sodium phosphate buffer (pH 7.4) at −20° C. Biochemical analysis was performed on water-homogenised tissues (50 mg/ml) and protein content was determined using a BCA protein assay (Thermo Fisher #23227) according to the manufacturer's instructions.
Sphingoid Base Measurements: Sphingoid bases (sphingosine and sphinganine) were extracted from 100 uL tissue homogenates in 500 uL of chloroform:methanol (1:2v/v) followed by sonication for 10 minutes at room temperature. Subsequently, 1 M 500-uL sodium chloride, 500 uL chloroform, and 3 M 100 uL sodium hydroxide were added to the samples, and vortexed every five minutes for 15 minutes at room temperature. Homogenates were centrifuged (13,000 g for 10 minutes) and the lower organic phase retained. Sphingoid bases were purified from the samples by pre-equilibrating SPA-NH2 columns with 2×1 mL chloroform followed by sample elution with 3×300 ul acetone. The samples were dried under nitrogen. Lipids were resuspended in 50 uL pre-warmed ethanol (37° C.) and 50 uL OPA labelling solution (1 mg OPA/20 uL Ethanol/1 uL 2-mercaptoethanol; dilution 1:2000 in 3% boric acid pH 10.5) was added. Samples were kept at room temperature in the dark for 20 minutes and vortexed every 10 minutes. Samples were buffered with 100 uL methanol: 5 mM Tris pH 7 (9:1) and centrifuged at 5,000 g for 2 minutes. Supernatants (150 uL) were loaded onto a reverse phase HPLC. Chromatography was carried out using a mobile phase of 85% acetonitrile/15% H2O at a flow rate of 1.0 ml/min. The orthophthaldehyde-labelled derivatives were monitored at an excitation wavelength of 340 nm and an emission wavelength of 450 nm. Quantification of trace peak area was carried out using EZChrom Elite software v3.2.1.
Glycosphingolipid measurements: Glycosphingolipids were extracted and measured by NP-HPLC according to published methods. Tissue homogenates in chloroform/methanol (C:M) (1:2 v/v) overnight at 4° C. The mixture was centrifuged (3000 rpm/10 min) and 1 mL chloroform and 1 mL PBS were added to the supernatant and centrifuged (3000 rpm/10 min). The lower phase was dried under N2, resuspended in 50 uL C:M 1:3 v/v and combined with the upper phase. Subsequently, GSLs were recovered using C18 Isolute columns (100 mg) (Biotage) pre-equilibrated with 4×1 mL MeOH and 2×1 mL H2O. Samples were washed 3×1 mL H2O and eluted with 1 mL C:M 98:2, 2×1 mL C:M 1:3, 1 mL MeOH. The column eluate was dried under N2, resuspended in 100 uL C:M 2:1, dried again under N2 and resuspended in ceramide glycanase (CGase) buffer (50 mM sodium acetate pH 5.5, 1 mg/mL sodium taurodeoxycholate). 50 mU CGase was added, and samples incubated at 37° C. overnight. Released oligosaccharides were anthranilic acid (2-AA) labelled and purified by mixing with 1 mL Acetonitrile: H2O 97:3 and added to Discovery DPA-6S columns (SUPELCO, # 52625-U) pre-equilibrated with 1 mL acetonitrile, 2×1 mL H2O, and 2×1 mL acetonitrile. Columns were washed with 2×1 mL Acetonitrile: H2O 95:5 v/v, and eluted in 2×0.75 mL H2O. […]

In test [2] the test system is Npc1^−/− mice. The test can be described thus: CatWalk automated gait analysis in Npc1−/− mice. The note with it: for ataxia (lateral displacement from a straight trajectory): 9-week-old Npc1−/− mice treated from 8 weeks of age (1 week), 0.1 g/kg/day in diet; for ataxia (lateral displacement from a straight trajectory) / duty cycle of hind paws / hind paw stand mean: vs untreated Npc1−/−; for magnitude of ataxia: Npc1−/− mice treated from weaning (3 weeks), assessed at 9 weeks (6 weeks of treatment). As to the method:
(§2) BALBc/NPC ^h and Sandhoff mice were bred as heterozygotes to generate affected mice (Npc1^−/−, Hexb^−/−) and controls (Npc^+/+, Hexb^+/+). The mice were housed under non-sterile conditions, with food and water available ad libitum. All experiments were conducted using protocols approved by the UK Home Office Animal Scientific Procedures Act, 1986.
as §1
(§3) Miglustat (Monsanto/Oxford GlycoSciences) was administered as a dry solid mixed with powdered chow (600 mg/kg/day) (see above) alone or in combination with ADLL.
(§4) The weight and activity of each mouse was recorded weekly until reaching the humane endpoint (defined as a loss of 1 g body weight within 24 h). Gait analysis was performed using CatWalk 10.5 system (Noldus) according to the manufacturer's instructions and five runs were recorded per animal at each time point. The camera was set to 40 cm below the walkway, the walkway was approximately 4 cm wide, and detection settings set to camera gain 14.05 and green intensity 0.12. Motor function was measured using an accelerating NG Rota Rod for mice (Ugo Basile) starting from 1 rpm to 10 rpm, accelerating every 30 seconds by one rpm. Bar crossing experiments on Sandhoff animals were conducted to measure motor strength and coordination. The apparatus used was modified from published studies. Briefly, a metal bar (1.2 mm width and 26 cm in length) was suspended horizontally between two wooden supports 30 cm high over a cushioned surface and animals were allowed to grasp the center of the bar with forepaws only, the tail was released, and the clock was started. Latency to cross or fall from the bar was scored, with 120 sec, maximum, to termination of each trial. A score was given to each animal between +120 and −120. If crossing time was greater than 0, then score=120−CT; if falling time was greater than 0, the score=FT−120.

Test [3] relates to Npc1^−/− mice. The test can be described thus: Survival / life span of Npc1−/− mice. As to the method: as §2, §1, §3
as §4, with “Briefly, a metal bar (1.2 mm width and 26 cm in length) was suspended horizontally between two wooden supports 30 cm high over a cushioned surface and animals were allowed to grasp the center of the bar with forepaws only, the tail was released, and the clock was started.” left out, “A score was given to each animal between +120 and −120. If crossing time was greater than 0, then score=120−CT; if falling time was greater than 0, the score=FT−120.” left out

Where [4] appears, read: Npc1−/− mice treated from 3 weeks, assessed at 8 weeks.

Take `CC(=O)N[C@@H](CC(C)C)C(=O)O` [ALL, N-acetyl-L-leucine]: in test [1], the “decrease of total free cholesterol in liver” value was found to be 23.4%, the “reduction of sphinganine in liver” value was determined as 37.4% and the “reduction of sphingosine in liver” value is listed as 33.2%. In test [1] (vs untreated Npc1−/−), the “reduction of GM2Gc in liver” value turned out to be 45%, the “reduction of GM3Gc in liver” value was 54.8% and the “reduction of liver GSL levels (total)” value was found to be 45.6%. In addition, in test [2], the “ataxia (lateral displacement from a straight trajectory)” value is given as “significantly reduced ataxia” and the magnitude of ataxia result was “significantly reduced”. In addition, in test [2] (setting [4]), the “duty cycle of hind paws” value is recorded as “significantly reduced” and the “hind paw stand mean” value is “significantly reduced”.

In the case of `CC(=O)NC(CC(C)C)C(=O)O` (racemic) [ADLL, N-acetyl-DL-leucine], in test [1], the “decrease of total free cholesterol in liver” value came out at 18.2%, the “reduction of sphinganine in liver” value is 32.5% and the “reduction of sphingosine in liver” value worked out at 29.5%. Moreover, in test [1] (vs untreated Npc1−/−), the “reduction of GM2Gc in liver” value worked out at 26.7% and the “reduction of liver GSL levels (total)” value was 26.9%. Besides, the median survival in test [3] (Npc1−/− mice, ADLL 0.1 g/kg/day, miglustat 600 mg/kg/day in chow, untreated Npc1−/− 87 days) amounted to 91 days. Further, in test [2], the “ataxia (lateral displacement from a straight trajectory)” value is reported as “significantly reduced ataxia” and the magnitude of ataxia result is “significantly reduced”. In test [2] (setting [4]), the “duty cycle of hind paws” value is “significantly reduced” and the “hind paw stand mean” value is on record as “significantly reduced”.

Consider `CC(=O)N[C@H](CC(C)C)C(=O)O` [ADL, N-acetyl-D-leucine], for which, in test [1], the “decrease of total free cholesterol in liver” value amounted to 16.2%, the “reduction of sphinganine in liver” value was found to be 38.5% and the “reduction of sphingosine in liver” value came to 33.6%. Further, in test [1] (vs untreated Npc1−/−), the “reduction of GM2Gc in liver” value is 29% and the “reduction of liver GSL levels (total)” value stood at 26.9%. For the same molecule, the “increase in life span” value in test [3] (Npc1−/− mice treated from weaning, 0.1 g/kg/day, relative to untreated Npc1−/−) is “not changed”. In test [2], the “ataxia (lateral displacement from a straight trajectory)” value was “significantly reduced ataxia” and the magnitude of ataxia entry is “significantly reduced”. In addition, the “motor function assessed using Catwalk” value in test [2] (setting [4]) is reported as “no significant benefit”.
